Results published in US9527827B2, “C-9 oxygen functionalized labdane derivates” (COUNCIL OF SCIENTIFIC & INDUSTRIAL RESEARCH, priority 2011, dated 2016).
In brackets after ≈: the same amount, converted by molar mass. Entries after “also recorded” stand apart in the source; their conditions may differ.

Columns and labels:
[1] = system: Mycobacterium tuberculosis H37Ra; assay: In vitro anti-mycobacterial activity against M. tuberculosis; type: cell-based; details: for IC50 / IC90: Mycobacterium tuberculosis, M. tuberculosis H37Ra; for IC50 / IC90 / Inhibition of / anti-tubercular activity against Mycobacterium tuberculosis (in words): in vitro
Procedure: All the isolated compounds and whole acetone extract were tested for their in vitro effect against Mycobacterium tuberculosis H37Ra.

Mycobacterium smegmatis = assay: Specificity test against M. smegmatis (XTT reduction microplate assay); type: cell-based
Escherichia coli = assay: Specificity test against E. coli (growth, absorbance at 620 nm); type: cell-based
M. tuberculosis H37Rv = details: cited from earlier work
[2] = system: prostaglandin-induced contractions; details: cited from earlier work

C[C@@H]1CC[C@H]2C(C)(C)CCC[C@]2(C)[C@@]1(O)CC/C(=C/CO)CO [Compound 3]
IC50 [1]: 9.8 µg/mL (≈ 30.2 µM) | IC90 [1]: 46.5 µg/mL (≈ 143 µM) | Inhibition of / anti-tubercular activity against Mycobacterium tuberculosis (in words) [1]: significant inhibition; also recorded: effective | Specificity / selectivity for M. tuberculosis (in words) ([1]; versus E. coli and M. smegmatis): specifically active; also recorded: selective inhibitors | Percent inhibition, M. smegmatis (Mycobacterium smegmatis; tested at IC90 found against M. tuberculosis, mean ± S.D. of three experiments): 30.57 ± 3.58% | Percent inhibition, E. coli (Escherichia coli; tested at IC90 found against M. tuberculosis, 6 h incubation, mean ± S.D. of three experiments): 11.47 ± 1.65%

C=C[C@](C)(O)CC[C@@H]1[C@@]2(C)CCCC(C)(C)[C@H]2CC[C@@]1(C)O [Compound 4]
IC50 [1]: 5.95 µg/mL (≈ 19.3 µM) | IC90 [1]: 10.8 µg/mL (≈ 35.2 µM) | Inhibition of / anti-tubercular activity against Mycobacterium tuberculosis (in words) [1]: potent anti-tubercular activity; also recorded: significant inhibition; also recorded: effective

NNC(=O)c1ccncc1 [Isoniazid, reference compound]
IC90 [1]: 0.05 ± 0.003 µg/mL (≈ 0.365 µM)

CO[C@H]1/C=C/O[C@@]2(C)Oc3c(C)c(O)c4c(O)c(c(/C=N/N5CCN(C)CC5)c(O)c4c3C2=O)NC(=O)/C(C)=C\C=C\[C@H](C)[C@H](O)[C@@H](C)[C@@H](O)[C@@H](C)[C@H](OC(C)=O)[C@@H]1C [Rifampicin, reference compound]
IC90 (Mycobacterium smegmatis; Mycolicibacterium smegmatis, reference drug, value is IC90, not percent inhibition): 0.2 ± 0.03 µg/mL (≈ 0.243 µM) | IC90 (Escherichia coli; Escherichia coli, reference drug, value is IC90, not percent inhibition): 0.5 ± 0.04 µg/mL (≈ 0.608 µM)

C=CC(=C)CCC1C(=C)CC[C@H]2[C@@](C)(C(=O)O)[C@H](OC(C)=O)CC[C@]12C (some centres unmarked) [juniperexcelsic acid]
MIC (M. tuberculosis H37Rv): 14.4 µg/mL (≈ 39.9 µM)

C=C[C@]1(C)C=C2C(=O)C[C@H]3C(C)(C)[C@@H](O[C@@H]4O[C@H](CO)[C@@H](O)[C@H](O)[C@H]4O[C@@H]4O[C@H](CO[C@@H]5O[C@H](CO)[C@@H](O)[C@H](O)[C@H]5O)[C@@H](O)[C@H](O)[C@H]4O)CC[C@]3(C)[C@H]2CC1 [leucasperosides A, leucasperoside A]
Inhibition of prostaglandin-induced contractions (in words) [2]: showed inhibition

C=C[C@]1(C)C=C2C(=O)C[C@H]3C(C)(C)[C@@H](O[C@@H]4O[C@H](CO)[C@@H](O)[C@H](O)[C@H]4O[C@@H]4O[C@H](CO)[C@@H](O)[C@H](O)[C@H]4O)CC[C@]3(C)[C@H]2CC1 [leucasperosides B, leucasperoside B]
Inhibition of prostaglandin-induced contractions (in words) [2]: showed inhibition

leucasperone A
Inhibition of prostaglandin-induced contractions (in words) [2]: showed inhibition

linifolioside
Inhibition of prostaglandin-induced contractions (in words) [2]: showed inhibition
